Laboratory results as given in patent publication US5451506A, “Oncostatin M and novel compositions having anti-neoplastic activity” (Oncogen Limited Partnership, priority 1993, dated 1995).
“And” between values parts separate entries of the source, which are not always exact repeats. Equal values may be shown once.

Legend:
A549 lung cancer cells = test: Cell growth modulatory assay using 3H-thymidine incorporation into DNA (GIA); type: cell-based, human
Procedure: (§1) The assays were performed in 96 flat well plates (Costar 3596). Human melanoma cells (A375) (3×10^3 /100 μl) or cells from another cell line of interest were at an appropriate cell density used. Cells in 100 μl growth medium were placed in each well. Three hours later, 100 μl of test sample in growth medium was added to each well. Plates were incubated at 37° C. for 3 days. Then 25 μl (0.5 μCi) of a solution of ^3 H-thymidine (specific activity 27 μCi/μg) was added to each well for the final 6 hours of incubation. The cells were then transferred to glass filter strips using a multiwell harvester (PHD Cell Harvester, Cambridge Technology, Inc.). The filters were transferred to scintillation vials. Two ml of scintillation fluid (ScientiVerse II, Fisher Scientific Co.) was added and the samples counted in a scintillation counter to quantitate ^3 H-thymidine incorporation.
(§2) The effect of Oncostatin M on various cell lines was assessed using a cell growth modulatory assay performed as described in Example 1B, above. The cell lines tested included A549 lung cancer cells. HTB10 neuroblastoma cells, and A375 melanoma cells.

[1] = system: HTB10 neuroblastoma cells; test: as above; type: cell-based, human
Procedure: as §1, §2

MCF-7 breast tumor cells = test: Inhibition of 3H-TdR incorporation, Oncostatin M and TNF-α; type: cell-based, human; conditions: MCF-7 Cells
Procedure: as §1
Inhibition of ^3 H-TdR incorporation into A375 cells and MCF-7 cells were compared using the assay described in Example 1B, above. The cells were treated with either Oncostatin M alone, TNF-α (Amgen Biologicals, human recombinant TNF-α) alone, or with a combination of Oncostatin M and TNF-α.

A375 tumor cells = test: Inhibition of growth of A375 tumors in nude mice; type: in vivo; conditions: for Cumulative Tumor Size: 3 mice
Procedure: A375 tumor cells (2.3×10^6) or an appropriate number of cells of another cell line of interest were injected subcutaneously in the interscapular region of nude mice. When the tumors became palpable, half of the mice were inoculated subcutaneously proximal to the tumor with either (a) 100 μl PBS containing 1.6 μg bovine serum albumin (BSA) or (b) 100 μl PBS containing 1.6 μg BSA plus the test sample. The mice were inoculated in the same manner every 2-3 days until about 19 days after the first inoculation. The diameter and width of each tumor was measured every 2-3 days using calipers.
Six nude mice were injected with A375 cells as described in Example 1D, above. After the tumors became palpable, the mice were injected, proximal to the tumor, with PBS (control) or PBS containing 400 ng Oncostatin M, three mice in each group.
The cumulative sizes (mm^2) of the tumors in each group of three mice were determined every 2-3 days.

A375 cells [2] = test: Growth inhibition assay (A375 proliferation; synergy tests); type: cell-based, human; conditions: 1.8 U/ml, alone
Procedure: A375 melanoma cells (4×10^3 cells/50 μl), Mv1Lu mink lung epithelial cells (3.5×10^3 cells/50 μl), or other cell line of interest at an appropriate cell density were subcultured for four hours on flat-bottomed 96-well tissue culture plates (Costar 3596, Cambridge, Mass.) in growth medium comprising Dulbecco's modified Eagle's medium (DMEM), supplemented with 10% heat-in-activated fetal bovine serum, and P/S. Test samples to be assayed for growth inhibition were diluted in growth medium and assayed in triplicate with 50 μl of the diluted sample added to each well. The cells were incubated for 72 hours at 37° C.
The growth inhibitory activity of highly purified TGF-β1, recombinant gamma-interferon (rIFN-γ), and Oncostatin M on A375 cells was determined, and possible synergy between TGF-β1 and Oncostatin M, TGF-β1 and rIFN-γ, and Oncostatin M and rIFN-γ in inhibiting A375 proliferation was tested. […] is expressed in units of Mv1Lu growth inhibitory activity, rIFN-γ in units of anti-viral activity and Oncostatin M in units of A375 growth inhibitory activity. Concentrations of TGF-β1 (1-30 U/ml) and Oncostatin M (0.5-10 U/ml) were chosen which caused either no or only minimal growth inhibition when tested individually.

Mouse L929 cells = test: Effect on mouse L929 cells; type: cell-based; conditions: mouse L929 cells, sensitive to tumor necrosis factor
Procedure: The ability of PBL-derived Oncostatin M to affect replication of a variety of cells was also investigated. Mouse L929 cells were insenstive to PBL-derived Oncostatin M using up to 1000 GIA units/ml. Growth of human fibroblasts, WI26, was stimulated by treatment with 1000 GIA units/ml. Normal human T-lymphocyte proliferation at 72 hours post mitogenesis was not affected by up to 500 GIA units/ml.

A375 cells [3] = test: Effect of acid, base and heat treatments on tumor growth inhibitory activity; type: cell-based, human
Procedure: as §1
U937 cells (RPMI 1640+5% FCS seeded at 7.5×10^5 cells/ml) were treated with TPA (10 ng/ml) for 3 days. The cells were then washed with medium (serum-free RPMI 1640) and incubated for 24 hr in serum-free (serum-free RPMI 1640) medium before collecting the supernatants. The supernatants were treated with 1N acetic acid or 1N ammonium hydroxide. They were then dialyzed against medium (serum-free RPMI 1640) and tested for their ability to inhibit ^3 H-thymidine incorporation into A375 cells using the assay as described in Example 1B

bone marrow cells = test: Granulocytic/myelocytic colony formation from bone marrow cells; type: cell-based; conditions: concentrations up to 100 GIA units/ml
[4] = system: human proliferative or cytotoxic T cell responses; test: Mixed leukocyte culture reactions (MLC); type: cell-based; conditions: 500 GIA units/ml
[5] = system: γ-interferon-sensitive human tumor cell line; test: Cytotoxic activity against a γ-interferon-sensitive tumor line; type: cell-based

Oncostatin M: Human polypeptide growth regulator produced by activated leukocytes; apparent molecular weight approximately 28 kD by PAGE
GIA Units to Cause 30% Inhibition 3H-TDR Incorporation (A549 lung cancer cells; A549 (lung cancer)): 21.0 GIA Units | concentration to cause 30% inhibition 3H-TdR (A549 lung cancer cells; A549, based upon the specific activity of purified Oncostatin M): approximately 1.4 ng/ml | % Inhibition of 3H-thymidine incorporated (A549 lung cancer cells; Exp. 3, A549, 8 GIA units/well): 16% | % Inhibition of 3H-thymidine incorporated (A549 lung cancer cells; Exp. 3, A549, 25 GIA units/well): 22% | % Inhibition of 3H-thymidine incorporated (A549 lung cancer cells; Exp. 3, A549, 75 GIA units/well): 30% | % Inhibition of 3H-thymidine incorporated ([1]; Exp. 2, HTB10, 3 GIA units/well): 11% | % Inhibition of 3H-thymidine incorporated ([1]; Exp. 2, HTB10, 9 GIA units/well): 22% | % Inhibition of 3H-thymidine incorporated ([1]; Exp. 2, HTB10, 27 GIA units/well): 28% | GIA Units to Cause 30% Inhibition 3H-TDR Incorporation ([1]; HTB10 (neuroblastoma)): 81.0 GIA Units | concentration to cause 30% inhibition 3H-TdR ([1]; HTB10, based upon the specific activity of purified Oncostatin M): ~4.0 ng/mL | Observed % Inhibition of 3H-TdR Incorporation (MCF-7 breast tumor cells): 18% | Tumor size relative to control animals (A375 tumor cells; 400 ng Oncostatin M vs PBS): about half the size of those in control animals | Tumor weight relative to control-treated mice (A375 tumor cells; 400 ng Oncostatin M vs PBS, after 21 days): approximately one-third the weight of the tumors from the control-treated mice | Cumulative Tumor Size (A375 tumor cells; day 0 after treatment, 400 ng, PBS 70): 50 mm^3 | Cumulative Tumor Size (A375 tumor cells; day 3 after treatment, 400 ng, PBS 116): 64 mm^3 | Cumulative Tumor Size (A375 tumor cells; day 5 after treatment, 400 ng, PBS 130): 66 mm^3 | Cumulative Tumor Size (A375 tumor cells; day 7 after treatment, 400 ng, PBS 160): 90 mm^3 | Cumulative Tumor Size (A375 tumor cells; day 10 after treatment, 400 ng, PBS 180): 88 mm^3 | Cumulative Tumor Size (A375 tumor cells; day 12 after treatment, 400 ng, PBS 210): 100 mm^3 | Cumulative Tumor Size (A375 tumor cells; day 14 after treatment, 400 ng, PBS 268): 116 mm^3 | Cumulative Tumor Size (A375 tumor cells; day -1 after treatment, 400 ng s.c. proximal to tumor every 2-3 days, PBS 30): 30 mm^3 | Tumor Wt (A375 tumor cells; individual mice (No. 94, 97, 95) after 21 days, PBS mice 540, 440, 480): 100 mg and 140 mg and 200 mg | Inhibition of cell growth (A375 cells [2]): 12% | Cytotoxic activity (Mouse L929 cells): lacks cytotoxic activity | Resistance to inactivation by acid and base (A375 cells [3]; 1N acetic acid and 1N ammonium hydroxide, dialyzed supernatant): substantially resistant to inactivation | Heat stability of activity (A375 cells [3]; 56° C. for 1 hr): retain its activity | Heat stability of activity (A375 cells [3]; 95° C. for 30 min): lose substantially all its activity | Granulocytic/myelocytic colony formation (bone marrow cells): does not inhibit granulocytic/myelocytic colony formation | Proliferative or cytotoxic T cell responses in MLC [4]: does not suppress | Cytotoxic activity [5]: lacks cytotoxic activity
